Data as given in PubChem BioAssay AID2060892 (Molecular Pharmacology Branch, DTP, NCI, 2025).
Several values for one entry are separate records, joined by “and”; a condition that tells them apart may be missing. Equal values may be shown once.

Test system: HOP-62 complex spheroids with HUVEC/MSC, viability
Assay: Anticancer human tumor HOP-62 cell line growth inhibition [RAS];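 also: spheroids exposed to agents for seven days before readout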;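 as to viability, T/C: 100% = DMSO vehicle control viability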
Settings: for viability, T/C: stronger effect = lower value; active = viability on the fitted dose curve at most 10% of control; inactive = the rest
How it was run: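 Agents were tested in combination matrices in half-log decrements from a top concentration at or near clinical Cmax (10 microM if undetermined). Targets were multi-cell spheroids of tumour lines plus HUVEC and MSC stromal cells.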

CC(C)n1nc(-c2ccc3oc(N)nc3c2)c2c(N)ncnc21 + C=CC(=O)N1CCN(c2nc(OCC3CCCN3C)nc3c(F)c(-c4nc(N)cc(C)c4C(F)(F)F)c(Cl)cc23)C(C)C1
1.3 nM: IC50 (curve of first compound, second compound 0.316 µM)
1.54 nM: IC50 (curve of first compound, second compound 1 µM)
inactive: viability, T/C (second compound 0.00316 µM, first compound 0.000316 µM) 65.2% | viability, T/C (second compound 0.00316 µM, first compound 0.001 µM) 62.2% | viability, T/C (second compound 0.00316 µM, first compound 0.00316 µM) 51.7% | viability, T/C (second compound 0.00316 µM, first compound 0.01 µM) 39.5% | viability, T/C (second compound 0.00316 µM, first compound 0.0316 µM) 26.7% | viability, T/C (second compound 0.00316 µM, first compound 0.1 µM) 17.2% | viability, T/C (second compound 0.01 µM, first compound 0.000316 µM) 63% | viability, T/C (second compound 0.01 µM, first compound 0.001 µM) 62.7% | viability, T/C (second compound 0.01 µM, first compound 0.00316 µM) 52.6% | viability, T/C (second compound 0.01 µM, first compound 0.01 µM) 33% | viability, T/C (second compound 0.01 µM, first compound 0.0316 µM) 27% | viability, T/C (second compound 0.01 µM, first compound 0.1 µM) 17.2% | viability, T/C (second compound 0.0316 µM, first compound 0.000316 µM) 61.4% | viability, T/C (second compound 0.0316 µM, first compound 0.001 µM) 51.9% | viability, T/C (second compound 0.0316 µM, first compound 0.00316 µM) 43% | viability, T/C (second compound 0.0316 µM, first compound 0.01 µM) 34.4% | viability, T/C (second compound 0.0316 µM, first compound 0.0316 µM) 23.9% | viability, T/C (second compound 0.0316 µM, first compound 0.1 µM) 14% | viability, T/C (second compound 0.1 µM, first compound 0.000316 µM) 59.5% | viability, T/C (second compound 0.1 µM, first compound 0.001 µM) 53.2% | viability, T/C (second compound 0.1 µM, first compound 0.00316 µM) 40.6% | viability, T/C (second compound 0.1 µM, first compound 0.01 µM) 27% | viability, T/C (second compound 0.1 µM, first compound 0.0316 µM) 20.8% | viability, T/C (second compound 0.1 µM, first compound 0.1 µM) 14.1% | viability, T/C (second compound 0.316 µM, first compound 0.000316 µM) 61.1% | viability, T/C (second compound 0.316 µM, first compound 0.001 µM) 49.6% | viability, T/C (second compound 0.316 µM, first compound 0.00316 µM) 45.8% | viability, T/C (second compound 0.316 µM, first compound 0.01 µM) 25.9% | viability, T/C (second compound 0.316 µM, first compound 0.0316 µM) 22.1% | viability, T/C (second compound 0.316 µM, first compound 0.1 µM) 12.9% | viability, T/C (second compound 1 µM, first compound 0.000316 µM) 64.9% | viability, T/C (second compound 1 µM, first compound 0.001 µM) 50.1% | viability, T/C (second compound 1 µM, first compound 0.00316 µM) 47.7% | viability, T/C (second compound 1 µM, first compound 0.01 µM) 30.2% | viability, T/C (second compound 1 µM, first compound 0.0316 µM) 20.9% | viability, T/C (second compound 1 µM, first compound 0.1 µM) 13.2%
3.62 nM: IC50 (curve of first compound, second compound 0.01 µM)
1.35 nM: IC50 (curve of first compound, second compound 0.0316 µM)
3.91 nM: IC50 (curve of first compound, second compound 0.00316 µM)
1.29 nM: IC50 (curve of first compound, second compound 0.1 µM)

NC1c2ccccc2OC12CCN(c1cnc3c(N4CCCc5ncccc54)n[nH]c3n1)CC2 (stereo not drawn)
inactive: viability, T/C (compound 0.0316 µM) 106% [middle of 4 runs]
4450 nM and > 10000 nM and 9130 nM: IC50 (curve of compound)

Cc1nc(N2CCC3(CC2)COC(C)C3N)c(CO)nc1Sc1ccnc(N)c1Cl (stereo not drawn)
inactive: viability, T/C (compound 0.0316 µM) 108% [middle of 4 runs] | viability, T/C (compound 0.1 µM) 106% (3×) and 107% | viability, T/C (compound 0.316 µM) 102% [middle of 4 runs]
> 10000 nM: IC50 (curve of compound)
